In paper PMC9383034, “Impact of microcin J25 on the porcine microbiome in a continuous culture model” (Frontiers in Microbiology, 2022):
Bridge positions count the residues as written; N and C are the ends. Ends that are not written are not given here.

Columns and labels:
swine colonic microbiota = assay: PMA-qPCR counts of bacterial groups in PolyFermS swine colon fermentation model; type: cell-based; settings: for impact on total bacterial counts: PolyFermS, with Salmonella Newport 10^7 cfu/mL, 0.4 mM MccJ25 or 4 mM reuterin, 24 h
Description: (§1) The in vitro fermentation model of the swine colon has been described elsewhere in detail ([Tanner et al., 2014]) and in our previous study ([Naimi et al., 2020]). […] Seeded with 30% (v/v) swine fecal beads, the inoculum reactor IR (useful volume of 250 mL) was fed fresh nutrient medium continuously (Figure 1A). Effluent from IR was used to continuously inoculate at 10% (v/v) the test reactors TR1 and TR2, which also received 90% (v/v) fresh medium (Figure 1B). The feed rate of the three reactors controlled using peristaltic pumps (model 120U, Watson-Marlow, Falmouth, Cornwall, United Kingdom) was set at 27 mL/h for a mean retention time in IR and TRs of 9 h. For the first 3 days, the IR was run in repeated-batch mode, the medium replaced every 12 h with fresh medium, in order to colonize fecal bead. Continuous feeding was then started, followed by 12 days of stabilization before connection to TR1 and TR2. Continuous culture was split into three periods: stabilization, treatment and wash. Conditions were kept constant in IR to assess the temporal stability of the system without any manipulation during the entire fermentation, while TR1 and TR2 were subjected to treatments for various periods. Between each period, culture was flushed from TR1 and TR2 as described previously ([Tanner et al., 2014]). TR1 and TR2 were subjected to a washing procedure with 10% chlorine solution to decontaminate and remove any historical effect of the previous periods. Briefly, TR1 and TR2 were disconnected from the IR, the entire medium was removed and reactors were filled with 10% freshly prepared chlorine solution. After stirring for 1 h, the reactors were rinsed twice by adding sterile distilled water and stirring for another hour. After complete removal of water and chlorine residues, reactors were filled with sterile fresh nutritive medium and reconnected to the IR. After each flush, they were stabilized for 3 days until a steady state was reached before starting the next treatment period.
The inhibitory activity of MccJ25, reuterin and rifampicin against Salmonella Newport and the major bacterial species constituting the swine colonic microbiota were quantified using propidium-monoazide-coupled quantitative polymerase chain reaction (PMA-qPCR). Samples collected from the reactors were treated with propidium monoazide (PMA dye, Biotium, Inc., Hayward, CA, United States) for viable bacteria counts as described previously ([Fernandez et al., 2016]). […]
The quantitative PCR (qPCR) was performed in MicroAmp® Fast Optical 96-Well Reaction Plates with Barcode (Life Technologies Inc., Burlington, ON, Canada) on an ABI 7500 Real-Time PCR System (Applied Biosystems, Streetsville, ON, Canada). Each sample was analyzed in duplicate. […]

E. coli = settings: reuterin 1.3 mM, without affecting other bacterial populations; ref Cleusix et al., 2008; cited from earlier work
Description: Enumerating specific bacterial groups by PMA-qPCR provided first a global information on the composition of the swine gut microbial community. Rifampicin induced important changes in Bacteroides, Lactobacillaceae and total 16S rRNA gene contents at the end of the colonic fermentation while no major effects were observed when MccJ25 and reuterin were added separately. […] Taxonomically, rifampici ...

[1] = test system: porcine intestinal microbiota; assay: 16S rRNA gene amplicon sequencing of microbiota in PolyFermS model (alpha/beta diversity, taxonomy); type: cell-based, swine; settings: for change in microbial composition (PCoA of Bray Curtis similarity matrix, PERMANOVA) compared to Salmonella alone: 24 h fermentation, two replicates F1 and F2, 0.4 mM MccJ25, 4 mM reuterin, p value 0.001 for significant differences; for change in microbial composition (PCoA of Bray Curtis similarity matrix, PERMANOVA) compared to Salmonella alone / change in alpha diversity (Shannon index and number of observed ASVs): 0.6 mM rifampicin; for change in alpha diversity (Shannon index and number of observed ASVs): rifampicin effect from the 8-h time point until end of fermentation, 0.4 mM MccJ25, 4 mM reuterin
Description: as §1
The microbial community at different time points along the fermentation was analyzed by Illumina next-generation 16S rRNA gene amplicon sequencing. Taxonomic analysis were assessed by sequencing the bacterial 16S rRNA gene in the V3-V4 region using the amplification primers 341F (5′-CCTACGGGNGGCWGCAG-3′) and 805R (5′-[…]-3′) adapted to incorporate the transposon-based Illumina Nextera adapters (Illumina, United States) and a sample barcode sequence allowing multiplexed sequencing ([García-López et al., 2020]). High-throughput sequencing was performed at the Institute for Integrative Systems Biology (Université Laval, Québec, Canada) on a MiSeq platform using 2 × 300 bp paired-end sequencing (Illumina, United States). The raw sequence data have been submitted to European Nucleotide Archive (ENA) database with accession number PRJEB52762.
Raw data were processed using the DADA2 R package (version 1.14.1) ([Callahan et al., 2016]) to obtain exact amplicon sequence variants (ASVs) using the metabaRpipe R package^1. Briefly, forward and reverse reads were truncated after 260 and 250 nucleotides, respectively. After truncation, reads with expected error rates higher than three and four for forward and reverse reads, respectively, were removed. After filtering, error rate learning, ASV inference and denoising, reads were merged with a minimum overlap of 15 nucleotides. Chimeric sequences were identified and removed. Taxonomy was assigned to ASVs using DADA2 against SILVA database (v138.1) ([Glöckner et al., 2017]). Phylogenetic relatedness of ASVs, alpha diversity (Observed and Shannon indexes) and beta diversity analyses (Bray Curtis similarity matrix) were performed using the phyloseq R package ([McMurdie and Holmes, 2013]) and the DivComAnalyses packages^2.
The rarefied ASV table was used to calculate richness and diversity indices.

Salmonella Newport = settings: PolyFermS continuous culture simulating swine proximal colon; ref Naimi et al., 2020; cited from earlier work
Source text: Microcin J25 (MccJ25) is one of the most studied Gram-negative bacteriocins. This 21-amino-acid posttranslationally modified peptide produced by E. coli is a potent inhibitor of Enterobacteriaceae including Salmonella ([Rintoul et al., 2001]). It is a typical lasso peptide ([Arnison et al., 2013]; [Wang and Zhang, 2018]) which is characterized by an 8-residue macrolactam ring that is closed by an isopeptide bond between the N-terminus and the side chain carboxylate of a glutamate at position 8. The ring is threaded by the resulting tail that is locked inside by two bulky amino acid side chains ... || Enumerating specific bacterial groups by PMA-qPCR provided first a global information on the composition of the swine gut microbial community. Rifampicin induced important changes in Bacteroides, Lactobacillaceae and total 16S rRNA gene contents at the end of the colonic fermentation while no major effects were observed when MccJ25 and reuterin were added separately. […] Taxonomically, rifampici ... || Since MccJ25 appears to be a potent inhibitor of Salmonella Newport in the PolyFermS continuous culture model of the porcine proximal colonic microbiome as shown previously ([Naimi et al., 2020]), it should be considered as a potential alternative to antibiotics in pork production. […] This is important since it has been shown that changes in gut microbiota composition are associated with various metabolic disorders and likely subject the ...

[2] = test system: swine colonic microbiota metabolome; assay: LC-MS metabolomic profiling of swine colonic microbiota in PolyFermS model; type: cell-based; settings: for impact on the metabolome of the swine colonic microbiota (LC-MS profiles, PCA): PolyFermS pellet extracts, 0.4 mM MccJ25, 4 mM reuterin, 0.6 mM rifampicin, MccJ25 effect decreased with time, rifampicin effect increased
Description: as §1
Resulting networks were visualized using Cytoscape 3.7.1.

[3] = cited from earlier work
Source text: (§2) Microcin J25 (MccJ25) is one of the most studied Gram-negative bacteriocins. This 21-amino-acid posttranslationally modified peptide produced by E. coli is a potent inhibitor of Enterobacteriaceae including Salmonella ([Rintoul et al., 2001]). It is a typical lasso peptide ([Arnison et al., 2013]; [Wang and Zhang, 2018]) which is characterized by an 8-residue macrolactam ring that is closed by an isopeptide bond between the N-terminus and the side chain carboxylate of a glutamate at position 8. The ring is threaded by the resulting tail that is locked inside by two bulky amino acid side chains ...

weaned pigs = settings: MccJ25 purity above 99%; ref Yu et al., 2017; cited from earlier work
Source text: as §2

[4] = test system: clinically relevant veterinary multidrug-resistant strains; settings: highly purified MccJ25; ref Yu et al., 2022; cited from earlier work
Source text: (§3) The widespread use of antibiotics in livestock production has led to the emergence of antibiotic-multiresistant bacteria, which can infect humans via the food chain. The use of antibiotics as growth promoters has been banned outright in several industrialized countries, which has increased the urgency of the search for alternatives. Researchers began decades ago to propose bacteriocins as substitutes. In addition to their natural origin, being mostly indigenous to the gut microbiota, and their potent inhibitory activity, bacteriocins are most often endowed with a narrow spectrum of antibacteri ...

E. coli infection = settings: highly purified MccJ25; ref Yu et al., 2022; cited from earlier work
Source text: as §3

[5] = PolyFermS TR1/TR2, Salmonella Newport 10^7 cfu/mL + 0.6 mM rifampicin, after 12 h, followed by regrowth

| Compound | impact on total bacterial counts (swine colonic microbiota) | effect on E. coli population (E. coli) | change in microbial composition (PCoA of Bray Curtis similarity matrix, PERMANOVA) compared to Salmonella alone [1] | change in alpha diversity (Shannon index and number of observed ASVs) [1] | inhibitory activity against Salmonella Newport (Salmonella Newport) | impact on the metabolome of the swine colonic microbiota (LC-MS profiles, PCA) [2] | reduction of Bacteroides counts (swine colonic microbiota; [5]) | reduction of total cell counts (swine colonic microbiota; [5]) | relative abundance of Escherichia-Shigella (ASV002) ([1]; 0.6 mM rifampicin + Salmonella Newport, at 12 h, enriched from the 8-h time point) | taxonomic change at the phylum level ([1]; 0.6 mM rifampicin + Salmonella Newport, from the 6-h time point, both reactors F1 and F2) | change in amino acid levels in microbiota metabolome ([2]; PolyFermS, 0.6 mM rifampicin + Salmonella Newport, extracted ion chromatograms) | stability to denaturing conditions, high temperatures, extreme pHs and certain proteases [3] | effect of supplemented diet on weaned pigs (weaned pigs) | bactericidal activity in vitro [4] | effect on inflammation (E. coli infection) | metabolomics profile after 24 h treatment ([2]; PolyFermS, 0.4 mM MccJ25 + Salmonella Newport, 24 h) |
| --- | --- | --- | --- | --- | --- | --- | --- | --- | --- | --- | --- | --- | --- | --- | --- | --- |
| O=CCCO [reuterin, 3-hydroxypropanal] | did not induce significant impact | significantly and selectively decrease E. coli | No significant changes | did not induce a remarkable changes | did not inhibit Salmonella Newport | no impact |  |  |  |  |  |  |  |  |  |  |
| CO[C@H]1/C=C/O[C@@]2(C)Oc3c(C)c(O)c4c(O)c(c(/C=N/N5CCN(C)CC5)c(O)c4c3C2=O)NC(=O)/C(C)=C\C=C\[C@H](C)[C@H](O)[C@@H](C)[C@@H](O)[C@@H](C)[C@H](OC(C)=O)[C@@H]1C [rifampicin, Rifampicin] |  |  | significant differences | significant decrease | inhibits Salmonella growth | significant effects | approximately 1 log | approximately 1 log | more than 44% | increase of the relative abundance of Proteobacteria and Firmicutes phyla | increase in the levels of Leu/Ile, Phe, Tyr and Trp amino acids |  |  |  |  |  |
| Microcin J25 (GGAGHVPEYFVGIGTPISFYG; lactam N-8; also: lasso macrolactam, places not given here; UniProt Q9X2V7 38-58, looked up) [MccJ25, 21-amino-acid posttranslationally modified lasso peptide bacteriocin produced by E. coli; 8-residue macrolactam ring closed by isopeptide bond to Glu8] | did not induce significant impact |  | significant differences | did not induce a remarkable changes | remained potent over 24 h |  |  |  |  |  |  | remarkable stability | improve growth performance, and attenuate diarrhea and systematic inflammation | efficient bactericidal activity | decrease inflammation | close to that before treatment |
